# Test results published in patent US10294229B2, “Heteroaryl substituted aminopyridine compounds” (BRISTOL-MYERS SQUIBB COMPANY, priority 2015, dated 2019).
# What was measured:
# IRAK4 = IRAK4 (Homo sapiens (Human), UniProt Q9NWZ3); test: IRAK4 Inhibition Assay; type: biochemical; conditions: ATP 500 μM; IRAK4 0.6 nM
# In short: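 Mobility-shift kinase assay: 0.6 nM IRAK4, 500 μM ATP, 1.5 μM fluorescent peptide, 60 min, room temperature. Percent inhibition was normalised between enzyme-free and DMSO-only wells.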
# [1] = Caco-2 Permeability Assay; type: in vitro ADME; conditions: human, Caco-2, test compound 3 μM
# In short: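 Bidirectional permeability measured over 2 h at 37° C, compound dosed at 3 μM in the donor compartment (apical for absorptive, basolateral for secretive) with plain buffer as receiver.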
# [2] = system: Human whole blood stimulated with a TLR2 agonist (lipoteichoic acid), IL-6 levels; test: IRAK4 Whole Blood Assay; type: cell-based; conditions: lipoteichoic acid 10 μg/mL
# In short: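 IL-6 was quantified by cytometric bead assay in supernatants of human blood (ACD-A) stimulated for 5 h with lipoteichoic acid at 10 μg/mL final. Compound exposure preceded stimulation for 60 min at 37 °C, 5% CO2.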
# Chain of IRAK4 (Q9NWZ3 whole entry, species assumed): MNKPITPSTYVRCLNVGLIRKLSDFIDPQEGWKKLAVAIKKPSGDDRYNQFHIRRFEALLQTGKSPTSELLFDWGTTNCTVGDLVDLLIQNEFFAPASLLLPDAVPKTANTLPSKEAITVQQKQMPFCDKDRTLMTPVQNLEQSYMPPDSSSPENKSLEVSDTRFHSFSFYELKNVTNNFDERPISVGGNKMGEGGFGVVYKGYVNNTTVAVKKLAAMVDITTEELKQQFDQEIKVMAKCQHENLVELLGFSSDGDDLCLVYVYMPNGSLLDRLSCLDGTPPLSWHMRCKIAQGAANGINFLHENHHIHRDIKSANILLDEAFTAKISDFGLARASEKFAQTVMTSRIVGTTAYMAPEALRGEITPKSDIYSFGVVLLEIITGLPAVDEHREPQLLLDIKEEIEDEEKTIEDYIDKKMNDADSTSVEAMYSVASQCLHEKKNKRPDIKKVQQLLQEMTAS
SMILES,IC50 (IRAK4) [µM],"Papp at 2 h, 3 µM [1] [nm/s]",EC50 ([2]; Homo sapiens) [µM],EC50 [2] [µM]
"CCCc1cn(-c2cnc(-n3ncc4cc(C#N)c(N)nc43)cc2NC(C)C)nn1 [Example 280, 6-amino-1-(4-(isopropylamino)-5-(4-propyl-1H-1,2,3-triazol-1-yl)pyridin-2-yl)-1H-pyrazolo[3,4-b]pyridine-5-carbonitrile]",0.003,276,0.23,–
"CC(C)Nc1cc(-n2ncc3cc(C#N)cnc32)ncc1-n1cc(CCCCO)nn1 [Example 311, 1-(5-(4-(4-hydroxybutyl)-1H-1,2,3-triazol-1-yl)-4-(isopropylamino)pyridin-2-yl)-1H-pyrazolo [3,4-b]pyridine-5-carbonitrile]",0.006,64,0.12,–
"CCC(C)(O)Cc1cn(-c2cnc(-n3ncc4cc(C#N)cnc43)cc2NC(C)C)nn1 (stereo not drawn) [Example 318, 1-(5-(4-(2-hydroxy-2-methylbutyl)-1H-1,2,3-triazol-1-yl)-4-(isopropylamino)pyridin-2-yl)-1H-pyrazolo[3,4-b]pyridine-5-carbonitrile]",0.025,108,0.79,–
"CC(=O)Cc1cn(-c2cnc(-n3ncc4cc(C#N)cnc43)cc2NC(C)C)nn1 [Example 331, 1-(4-(isopropylamino)-5-(4-(2-oxopropyl)-1H-1,2,3-triazol-1-yl)pyridin-2-yl)-1H-pyrazolo[3,4-b]pyridine-5-carbonitrile]",0.01,92,2.56,–
"CC(C)Nc1cc(-n2ncc3cc(C#N)cnc32)ncc1-n1cc(C2CCNCC2)nn1 [Example 334, 1-(4-(isopropylamino)-5-(4-(piperidin-4-yl)-1H-1,2,3-triazol-1-yl)pyridin-2-yl)-1H-pyrazolo[3,4-b]pyridine-5-carbonitrile]",0.002,< 15,0.07,–
"CC(C)Nc1cc(-n2ncc3cc(C#N)cnc32)ncc1-n1cc(C2CCN(CC(F)F)CC2)nn1 [Example 336, 1-(5-(4-(1-(2,2-difluoroethyl)piperidin-4-yl)-1H-1,2,3-triazol-1-yl)-4-(isopropylamino)pyridin-2-yl)-1H-pyrazolo[3,4-b]pyridine-5-carbonitrile]",0.007,250,0.22,–
"CC(C)Nc1cc(-n2ncc3cc(C#N)cnc32)ncc1-n1cc(C2CCN(C(C)C)CC2)nn1 [Example 337, 1-(4-(isopropylamino)-5-(4-(1-isopropylpiperidin-4-yl)-1H-1,2,3-triazol-1-yl)pyridin-2-yl)-1H-pyrazolo[3,4-b]pyridine-5-carbonitrile]",0.006,< 15,0.28,–
"COC(=O)N1CCC(c2cn(-c3cnc(-n4ncc5cc(C#N)cnc54)cc3NC(C)C)nn2)CC1 [Example 338, methyl 4-(1-(6-(5-cyano-1H-pyrazolo[3,4-b]pyridin-1-yl)-4-(isopropylamino)pyridin-3-yl)-1H-1,2,3-triazol-4-yl)piperidine-1-carboxylate]",0.006,179,0.38,–
"CC(=O)N1CC(c2cn(-c3cnc(-n4ncc5cc(C#N)cnc54)cc3NC(C)C)nn2)C1 [Example 339, 1-(5-(4-(1-acetylazetidin-3-yl)-1H-1,2,3-triazol-1-yl)-4-(isopropylamino)pyridin-2-yl)-1H-pyrazolo[3,4-b]pyridine-5-carbonitrile]",0.005,< 15,0.39,–
"CC(=O)NC1CCC(c2cn(-c3cnc(-n4ncc5cc(C#N)cnc54)cc3NC(C)C)nn2)CC1 (stereo not drawn) [Example 341, N-((1s,4s)-4-(1-(6-(5-cyano-1H-pyrazolo[3,4-b]pyridin-1-yl)-4-(isopropylamino)pyridin-3-yl)-1H-1,2,3-triazol-4-yl)cyclohexyl)acetamide]",0.003,< 15,0.3,–
"N#Cc1cnc2c(cnn2-c2cc(NC3CC3)c(-n3cc(C4CCOCC4)nn3)cn2)c1 [Example 348, 1-(4-(cyclopropylamino)-5-(4-(tetrahydro-2H-pyran-4-yl)-1H-1,2,3-triazol-1-yl)pyridin-2-yl)-1H-pyrazolo[3,4-b]pyridine-5-carbonitrile]",0.013,410,0.17,–
"CC(C)Nc1cc(-n2ncc3cc(C#N)cnc32)ncc1-n1cc(CCN2CCOCC2)nn1 [Example 349, 1-(4-(isopropylamino)-5-(4-(2-morpholinoethyl)-1H-1,2,3-triazol-1-yl)pyridin-2-yl)-1H-pyrazolo[3,4-b]pyridine-5-carbonitrile]",0.003,186,0.27,–
"CC(C)Nc1cc(-n2ncc3cnc(N)nc32)ncc1-n1cc(CCC(C)(C)O)nn1 [Example 350, 4-(1-(6-(6-amino-1H-pyrazolo[3,4-d]pyrimidin-1-yl)-4-(isopropylamino)pyridin-3-yl)-1H-1,2,3-triazol-4-yl)-2-methylbutan-2-ol]",0.006,64,0.28,–
"CC(C)Nc1cc(-n2ncc3cnc(N)nc32)ncc1-n1cc(CCC(C)(C)F)nn1 [Example 351, 1-(5-(4-(3-fluoro-3-methylbutyl)-1H-1,2,3-triazol-1-yl)-4-(isopropylamino)pyridin-2-yl)-1H-pyrazolo[3,4-d]pyrimidin-6-amine]",0.004,306,0.37,–
"CC(C)Nc1cc(-n2ncc3cc(C#N)cnc32)ncc1-n1cc(C2CCOCC2)nn1 [Example 355, 1-(4-(isopropylamino)-5-(4-(tetrahydro-2H-pyran-4-yl)-1H-1,2,3-triazol-1-yl)pyridin-2-yl)-1H-pyrazolo[3,4-b]pyridine-5-carbonitrile]",0.007,487,0.24,–
"CC(C)Nc1cc(-n2ncc3cc(C#N)cnc32)ncc1-n1cc(C2CCN(S(C)(=O)=O)CC2)nn1 [Example 361, 1-(4-(isopropylamino)-5-(4-(1-(methylsulfonyl)piperidin-4-yl)-1H-1,2,3-triazol-1-yl)pyridin-2-yl)-1H-pyrazolo[3,4-b]pyridine-5-carbonitrile]",0.007,56,0.36,–

# Second part, the molecule after the results:
IC50 (IRAK4) [µM],"Papp at 2 h, 3 µM [1] [nm/s]",EC50 ([2]; Homo sapiens) [µM],EC50 [2] [µM],SMILES
0.011,44,0.24,–,"CC(C)Nc1cc(-n2ncc3cc(C#N)cnc32)ncc1-n1cc(CCCO)nn1 [Example 296, 1-(5-(4-(3-hydroxypropyl)-1H-1,2,3-triazol-1-yl)-4-(isopropylamino)pyridin-2-yl)-1H-pyrazolo[3,4-b]pyridine-5-carbonitrile]"
0.003,74,0.2,–,"CC(C)Nc1cc(-n2ncc3cc(C#N)cnc32)ncc1-n1cc(CCC(C)(C)O)nn1 [Example 327, 1-(5-(4-(3-hydroxy-3-methylbutyl)-1H-1,2,3-triazol-1-yl)-4-(isopropylamino)pyridin-2-yl)-1H-pyrazolo[3,4-b]pyridine-5-carbonitrile]"
0.014,360,–,0.15,"CC(F)Cc1cn(-c2cnc(-n3ncc4cc(C#N)cnc43)cc2NC2CC2)nn1 (stereo not drawn) [Example 354, 1-(4-(cyclopropylamino)-5-(4-(2-fluoropropyl)-1H-1,2,3-triazol-1-yl)pyridin-2-yl)-1H-pyrazolo[3,4-b]pyridine-5-carbonitrile]"
0.006,156,0.33,–,"CC(C)(F)CCc1cn(-c2cnc(-n3ncc4cc(C#N)cnc43)cc2NC2COC2)nn1 [Example 363, 1-(5-(4-(3-fluoro-3-methylbutyl)-1H-1,2,3-triazol-1-yl)-4-(oxetan-3-ylamino)pyridin-2-yl)-1H-pyrazolo[3,4-b]pyridine-5-carbonitrile]"
0.003,45,0.25,–,"CC(C)(O)CCc1cn(-c2cnc(-n3ncc4cc(C#N)cnc43)cc2NC2CCC(F)C2)nn1 (stereo not drawn) [Example 364, 1-(4-((3-fluorocyclopentyl)amino)-5-(4-(3-hydroxy-3-methylbutyl)-1H-1,2,3-triazol-1-yl)pyridin-2-yl)-1H-pyrazolo[3,4-b]pyridine-5-carbonitrile]"
0.003,< 15,0.41,–,"CC(C)(O)CCc1cn(-c2cnc(-n3ncc4cc(C#N)cnc43)cc2NC2CCOC2)nn1 [Example 365, (S)-1-(5-(4-(3-hydroxy-3-methylbutyl)-1H-1,2,3-triazol-1-yl)-4-((tetrahydrofuran-3-yl)amino)pyridin-2-yl)-1H-pyrazolo[3,4-b]pyridine-5-carbonitrile]"
0.009,36,0.23,–,"CC(C)(O)CCc1cn(-c2cnc(-n3ncc4cc(C#N)cnc43)cc2NC2CC(F)(F)C2)nn1 [Example 367, 1-(4-((3,3-difluorocyclobutyl)amino)-5-(4-(3-hydroxy-3-methylbutyl)-1H-1,2,3-triazol-1-yl)pyridin-2-yl)-1H-pyrazolo[3,4-b]pyridine-5-carbonitrile]"
0.003,32,0.18,–,"CC(C)(O)CCc1cn(-c2cnc(-n3ncc4cc(C#N)cnc43)cc2N[C@H]2CC[C@H](F)C2)nn1 [Example 368, 1-(4-(((1S,3S)-3-fluorocyclopentyl)amino)-5-(4-(3-hydroxy-3-methylbutyl)-1H-1,2,3-triazol-1-yl)pyridin-2-yl)-1H-pyrazolo[3,4-b]pyridine-5-carbonitrile]"
